Experimental data published in the NIST ThermoML archive (doi:10.1016/j.jct.2016.07.037).
± gives the expanded uncertainty stated by the source. Values belong to the compound of their own block, whether it stands above or below them.

Tests used:
[1] = molar heat capacity at constant pressure; details: 298.15 K; 101.33 kPa; Crystal; Drop calorimetry
[2] = Crystal; for vapor or sublimation pressure: Calculated from knudsen effusion weight loss; for Normal melting temperature: DTA
[3] = molar enthalpy of vaporization or sublimation; details: 298.15 K; Crystal; Static calorimetry
[4] = Molar enthalpy of transition or fusion; details: Crystal; DSC

Structure (SMILES): OCC(F)(F)C(F)(F)C(F)(F)C(F)(F)C(F)(F)C(F)(F)C(F)(F)C(F)(F)F [2,2,3,3,4,4,5,5,6,6,7,7,8,8,9,9,9-heptadecafluoro-1-nonanol]
- molar heat capacity at constant pressure [1]: 515.9 ± 12 J/K/mol

Structure (SMILES): OCC(F)(F)C(F)(F)C(F)(F)C(F)(F)C(F)(F)C(F)(F)C(F)(F)C(F)(F)C(F)(F)C(F)(F)C(F)(F)C(F)(F)C(F)(F)F
- molar heat capacity at constant pressure [1]: 725.3 ± 17 J/K/mol
- vapor or sublimation pressure ([2]; 328.6 K): 0.00014 ± 2.1e-05 kPa
- vapor or sublimation pressure ([2]; 330.6 K): 0.000172 ± 2.1e-05 kPa
- vapor or sublimation pressure ([2]; 332.5 K): 0.000231 ± 2.2e-05 kPa
- vapor or sublimation pressure ([2]; 334.5 K): 0.000302 ± 2.3e-05 kPa
- vapor or sublimation pressure ([2]; 336.5 K): 0.000391 ± 2.4e-05 kPa
- vapor or sublimation pressure ([2]; 338.4 K): 0.000502 ± 2.7e-05 kPa
- vapor or sublimation pressure ([2]; 340.4 K): 0.000642 ± 3e-05 kPa
- Normal melting temperature [2]: 139.2 ± 0.5 °C
- molar enthalpy [3]: 30.2 ± 0.932 kcal/mol
- Molar enthalpy of transition or fusion [4]: 9.08 ± 0.454 kcal/mol

Next, values leading:

- molar heat capacity at constant pressure [1]: 602.4 ± 14 J/K/mol
Structure (SMILES): OCC(F)(F)C(F)(F)C(F)(F)C(F)(F)C(F)(F)C(F)(F)C(F)(F)C(F)(F)C(F)(F)C(F)(F)F [1H,1H-perfluoroundecan-1-ol]

- molar heat capacity at constant pressure [1]: 645.2 ± 15 J/K/mol
- vapor or sublimation pressure ([2]; 303.6 K): 6.95e-05 ± 2e-05 kPa
- vapor or sublimation pressure ([2]; 306.1 K): 0.0001 ± 2e-05 kPa
- vapor or sublimation pressure ([2]; 308.6 K): 0.000143 ± 2.1e-05 kPa
- vapor or sublimation pressure ([2]; 311 K): 0.000196 ± 2.1e-05 kPa
- vapor or sublimation pressure ([2]; 313.5 K): 0.000273 ± 2.2e-05 kPa
- vapor or sublimation pressure ([2]; 316 K): 0.000376 ± 2.4e-05 kPa
- vapor or sublimation pressure ([2]; 318.5 K): 0.000517 ± 2.7e-05 kPa
- vapor or sublimation pressure ([2]; 321 K): 0.000727 ± 3.3e-05 kPa
- vapor or sublimation pressure ([2]; 323.5 K): 0.001007 ± 7.8e-05 kPa
- Normal melting temperature [2]: 114.2 ± 1.3 °C
- molar enthalpy [3]: 26.4 ± 0.86 kcal/mol
- Molar enthalpy of transition or fusion [4]: 5.88 ± 0.311 kcal/mol
Structure (SMILES): OCC(F)(F)C(F)(F)C(F)(F)C(F)(F)C(F)(F)C(F)(F)C(F)(F)C(F)(F)C(F)(F)C(F)(F)C(F)(F)F [1H,1H-perfluoro-1-dodecanol]

- molar heat capacity at constant pressure [1]: 563.9 ± 13 J/K/mol
Structure (SMILES): OCC(F)(F)C(F)(F)C(F)(F)C(F)(F)C(F)(F)C(F)(F)C(F)(F)C(F)(F)C(F)(F)F [1H,1H-perfluoro-1-decanol]
